pIC50: −log10 of the molar value. Counter-ions that a name gives are not always drawn.
Biological target: T1, GluN2B (Homo sapiens, UniProt Q05586+Q13224)
T1 construct: gene GRIN2B; with GluN1 (Q05586)
Assay: automated patch clamp of HEK293 cells stably expressing human GluN1/GluN2B
Type: cell-based
Settings: not given

T1 sequence (Q13224 27-1484, other chains not shown): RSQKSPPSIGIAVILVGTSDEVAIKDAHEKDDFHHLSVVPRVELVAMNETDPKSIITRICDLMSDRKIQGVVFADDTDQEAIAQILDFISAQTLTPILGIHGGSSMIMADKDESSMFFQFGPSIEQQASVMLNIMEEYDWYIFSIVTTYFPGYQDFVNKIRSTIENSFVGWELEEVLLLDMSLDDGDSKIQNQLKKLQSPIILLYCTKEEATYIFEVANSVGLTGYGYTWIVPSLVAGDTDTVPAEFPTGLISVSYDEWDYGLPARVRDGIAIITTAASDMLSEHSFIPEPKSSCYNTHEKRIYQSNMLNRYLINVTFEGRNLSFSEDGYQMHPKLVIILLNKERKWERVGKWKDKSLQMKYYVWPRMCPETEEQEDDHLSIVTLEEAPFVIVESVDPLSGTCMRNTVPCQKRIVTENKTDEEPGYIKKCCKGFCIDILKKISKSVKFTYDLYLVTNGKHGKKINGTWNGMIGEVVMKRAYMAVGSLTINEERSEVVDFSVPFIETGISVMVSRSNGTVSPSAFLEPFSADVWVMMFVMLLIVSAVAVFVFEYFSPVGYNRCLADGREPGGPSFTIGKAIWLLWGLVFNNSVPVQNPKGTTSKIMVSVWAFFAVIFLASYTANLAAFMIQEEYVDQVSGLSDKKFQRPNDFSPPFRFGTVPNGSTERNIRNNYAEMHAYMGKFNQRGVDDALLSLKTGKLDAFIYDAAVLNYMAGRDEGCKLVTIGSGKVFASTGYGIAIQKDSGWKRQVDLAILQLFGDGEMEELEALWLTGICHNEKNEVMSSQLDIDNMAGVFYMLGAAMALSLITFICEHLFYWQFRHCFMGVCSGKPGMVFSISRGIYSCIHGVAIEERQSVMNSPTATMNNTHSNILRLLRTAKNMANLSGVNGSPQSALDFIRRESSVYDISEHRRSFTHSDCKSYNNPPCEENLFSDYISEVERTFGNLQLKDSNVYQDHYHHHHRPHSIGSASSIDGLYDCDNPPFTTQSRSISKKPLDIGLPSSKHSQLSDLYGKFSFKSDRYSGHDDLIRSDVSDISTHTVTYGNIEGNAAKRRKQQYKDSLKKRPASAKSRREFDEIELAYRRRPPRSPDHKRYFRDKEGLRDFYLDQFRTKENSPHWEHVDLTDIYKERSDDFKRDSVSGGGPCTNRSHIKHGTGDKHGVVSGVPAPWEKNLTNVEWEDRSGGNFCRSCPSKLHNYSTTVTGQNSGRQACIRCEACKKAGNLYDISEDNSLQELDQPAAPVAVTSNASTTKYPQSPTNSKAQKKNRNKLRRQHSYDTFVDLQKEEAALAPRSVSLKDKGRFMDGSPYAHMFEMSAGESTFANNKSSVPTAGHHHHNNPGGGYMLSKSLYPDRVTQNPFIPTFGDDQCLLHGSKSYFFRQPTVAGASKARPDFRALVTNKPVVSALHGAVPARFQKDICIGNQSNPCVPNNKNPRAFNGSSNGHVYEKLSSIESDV

| SMILES | pIC50 |
| --- | --- |
| N[C@H](CCCP(=O)(O)O)C(=O)O [D-APV] | 5.94 |

Test system: T2, primary mouse cortical neurons
T2 construct: primary cortical neurons, DIV 10
Assay: cells
Parameters: Protection from NMDA-induced (30 uM, 10 min) neuronal death; Hoechst nuclear morphology by automated microscopy
Settings: Cortical neurone, 20 h, read-out: % inhibition, inhibition of NMDA-induced cell death (protection score), 30 min pre-treatment
Method in brief: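 On DIV 10, primary mouse cortical neurons were given compound at 10 μM for 30 min at 37 °C, then 30 μM NMDA for 10 min, washed, and kept 20 h with compound. Dead cells were scored by nuclear morphology, and % protection was derived from survival relative to vehicle + NMDA and untreated controls.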

| SMILES | inhibition at 10 µM [%] |
| --- | --- |
| Cc1cc2c(s1)Nc1ccccc1N=C2N1CCN(C)CC1 [Olanzapine (Zyprexa)] | 12.7 |
| N=C(N)NC(=N)N1CCOCC1 [Moroxydine] | 0.926 |
| CC(C)NCC(O)c1ccc(O)c(O)c1 (stereo not shown) [Isoprenaline hydrochloride] | -0.7 |
| COc1ccc2cc3[n+](cc2c1OC)CCc1cc2c(cc1-3)OCO2 [Berberine Hydrochloride] | -2.08 |
| CN(C)C(=O)C(CCN1CCC(O)(c2ccc(Cl)cc2)CC1)(c1ccccc1)c1ccccc1 [Loperamide hydrochloride] | -2.48 |
| OC[C@H]1O[C@@H](Oc2cc(O)cc(C=Cc3ccc(O)cc3)c2)[C@H](O)[C@@H](O)[C@@H]1O [Polydatin (Piceid)] | 1.2 |
| Cc1cc(O)c2c(c1)C(=O)c1cc(O)cc(O)c1C2=O [Emodin] | -4.08 |
| C[C@]12CC[C@@H]3c4ccc(O)cc4CC[C@H]3[C@@H]1CCC2=O [Estrone] | -2.18 |
| CCCC1O[C@@H]2C[C@H]3[C@@H]4CCC5=CC(=O)C=C[C@]5(C)[C@H]4[C@@H](O)C[C@]3(C)[C@]2(C(=O)CO)O1 (stereo partly shown) [Budesonide] | -9.49 |
| COc1ccc2ccc(=O)oc2c1CC=C(C)C [Osthole (Osthol)] | -1.21 |
| CCOC(=O)c1ccc(C#Cc2ccc3c(c2)C(C)(C)CCS3)nc1 [Tazarotene (Avage)] | 38.1 |

Biological target: T3, GluN2A (Homo sapiens, UniProt Q05586+Q12879)
T3 construct: gene GRIN2A
Assay: not given
Settings: not given

T3 sequence (Q12879 23-1464, other chains not shown): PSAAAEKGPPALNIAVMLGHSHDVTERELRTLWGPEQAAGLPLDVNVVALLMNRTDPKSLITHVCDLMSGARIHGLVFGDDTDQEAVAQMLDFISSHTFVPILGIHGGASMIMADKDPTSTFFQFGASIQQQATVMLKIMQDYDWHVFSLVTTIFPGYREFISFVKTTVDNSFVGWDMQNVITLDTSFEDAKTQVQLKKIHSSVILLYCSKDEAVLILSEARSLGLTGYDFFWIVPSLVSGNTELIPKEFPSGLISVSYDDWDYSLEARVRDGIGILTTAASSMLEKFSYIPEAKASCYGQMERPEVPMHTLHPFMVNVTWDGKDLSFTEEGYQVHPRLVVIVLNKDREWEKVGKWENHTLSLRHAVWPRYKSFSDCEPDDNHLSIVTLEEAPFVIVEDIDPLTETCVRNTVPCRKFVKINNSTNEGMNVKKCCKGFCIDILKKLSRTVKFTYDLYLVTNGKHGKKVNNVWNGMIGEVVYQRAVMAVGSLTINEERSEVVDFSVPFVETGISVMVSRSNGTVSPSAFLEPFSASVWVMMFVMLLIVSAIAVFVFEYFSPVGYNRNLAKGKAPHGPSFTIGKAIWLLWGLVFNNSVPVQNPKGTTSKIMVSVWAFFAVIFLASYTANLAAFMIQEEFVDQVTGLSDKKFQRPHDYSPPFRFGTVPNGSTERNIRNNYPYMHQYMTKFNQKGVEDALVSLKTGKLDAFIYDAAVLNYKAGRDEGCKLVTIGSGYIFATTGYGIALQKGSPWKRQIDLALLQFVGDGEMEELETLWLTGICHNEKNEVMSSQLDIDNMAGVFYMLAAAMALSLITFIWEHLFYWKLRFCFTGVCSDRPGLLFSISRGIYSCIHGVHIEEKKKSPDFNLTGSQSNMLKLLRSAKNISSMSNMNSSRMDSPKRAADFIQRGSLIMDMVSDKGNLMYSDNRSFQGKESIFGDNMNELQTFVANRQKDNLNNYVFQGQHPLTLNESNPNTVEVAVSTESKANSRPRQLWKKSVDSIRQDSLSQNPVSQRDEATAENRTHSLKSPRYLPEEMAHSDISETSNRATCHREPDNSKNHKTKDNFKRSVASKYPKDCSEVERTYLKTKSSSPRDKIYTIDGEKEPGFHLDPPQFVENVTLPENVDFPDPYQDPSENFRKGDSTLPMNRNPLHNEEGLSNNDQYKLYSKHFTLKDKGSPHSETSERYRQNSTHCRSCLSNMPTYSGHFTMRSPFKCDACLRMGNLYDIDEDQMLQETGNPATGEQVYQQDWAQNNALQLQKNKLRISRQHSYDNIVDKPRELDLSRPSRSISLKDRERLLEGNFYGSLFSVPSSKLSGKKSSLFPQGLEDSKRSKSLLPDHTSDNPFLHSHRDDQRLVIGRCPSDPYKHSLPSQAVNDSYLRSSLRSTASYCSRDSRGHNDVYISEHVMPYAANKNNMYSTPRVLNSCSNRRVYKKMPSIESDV

| SMILES | pIC50 |
| --- | --- |
| N[C@H](CCCP(=O)(O)O)C(=O)O [D-APV] | 5.83 |

Reference: publication PMC7489219 (Molecular Brain, 2020)
